Assay results as given in patent US6677373B2, “Polymorphic B form of 3-(cyclopropylmethoxy)-4-[4-(methylsulfonyl)phenyl]-5,5-dimethyl-5H-furan-2-one” (Merial Limited, priority 1999, dated 2004).

Experiments:
Format in all cases: physicochemical
[1] = Solubility in methyltertiobutylether on recrystallization; conditions: solid at 6.3% weight in methyltertiobutylether
From the text: Recrystallization of polymorph A for purification purposes leaded to solubility problems in methyltertiobutylether.

[2] = Carr Index (compressibility index, flowability) of unmilled product
From the text: After crystallization and before micronization, the Carr Index of B form is lower than 10 (in %). The Carr Index CI is defined as: [formula] where P is the packed bulk density (g cm^−3), L is the loose bulk density (g cm^−3). CI is also know as a compressibility index. A low figure for CI corresponds to a high degree of flowability. The Carr Index way be calculated from Mercury Intrusion Porosimetry or measured by Tap—Tap.

[3] = Thermodynamic stability of the polymorphs, DSC (Differential Scanning Calorimetry); conditions: for thermodynamic stability: compared with Polymorph A, monotropic system according to Burger's rule
Protocol: an endothermal peak around 90-100° C. due to melting of A form,
an exothermal peak corresponding to the transition A→B,
an endothermal peak around 120° C. due to melting of B form,
a very small exothermal peak corresponding to the transition A→B,
an endothermal peak due to melting of B form.
Therefore, the transition A→B is under kinetic control as usual in case of polymorphism. The transition from A to B may also be followed by X-Ray under heating (FIG. 7).

Structure (SMILES): CC1(C)OC(=O)C(OCC2CC2)=C1c1ccc(S(C)(=O)=O)cc1 [3-(cyclopropylmethoxy)-4-(4-methylsulfonyl)phenyl-5,5-dimethylfuranone]
- solubility in methyltertiobutylether [1]: could no longer be solubilised

Structure (SMILES): CC1(C)OC(=O)C(OCC2CC2)=C1c1ccc(S(C)(=O)=O)cc1 [Polymorph B, 3-(cyclopropylmethoxy)-4-[4-(methylsulfonyl)phenyl]-5,5-dimethyl-5H-furan-2-one]
- Carr Index ([2]; after crystallization and before micronization): lower than 10%
- flow characteristics ([2]; compared with Polymorph A): better flow characteristics than Polymorph A
- Carr Index ([2]; unmilled product, Recrystallisation in MTBE, Lab scale): 2 to 3%
- Carr Index ([2]; unmilled product, Recrystallisation in MTBE, Pilot scale): 2 to 4%
- thermodynamic stability [3]: thermodynamically more stable than Polymorph A
- thermodynamic stability ([3]; listed as B form): the most stable form

Structure (SMILES): CC1(C)OC(=O)C(OCC2CC2)=C1c1ccc(S(C)(=O)=O)cc1 [Polymorph A, 3-(cyclopropylmethoxy)-4-[4-(methylsulfonyl)phenyl]-5,5-dimethyl-5H-furan-2-one]
- Carr Index ([2]; unmilled product, crystallisation process: Lab scale): 26 to 27%
- Carr Index ([2]; unmilled product, crystallisation process: Pilot scale): 29 to 33%
- behaviour when heated (DSC) ([3]; depending on the heating rate (40° C./mn, 2° C./mn)): transforms to form B
